In US11046714B2, “2,2-difluorodioxolo A2A receptor antagonists” (Merck Sharp & Dohme Corp., priority 2013, dated 2021):

Biological target: human A2A receptor (Homo sapiens (Human), UniProt P29274)
Assay: competition binding assay using Scintillation Proximity technology
Details: membranes from CHO-K1 cells expressing the human A2a receptor; 2.0 nM tritiated compound; Cheng-Prusoff
Procedure, shortened: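 Membranes (1.0 μg) from CHO-K1 cells expressing human A2A were treated with adenosine deaminase, then incubated 1 h at room temperature with compound (3000–0.15 nM) and 2.0 nM tritiated SCH-type ligand on WGA SPA beads in PBS plus 10 mM MgCl2. Nonspecific binding was defined with 1 μM CGS 15943. Ki was derived from EC50 via Cheng-Prusoff.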

human A2A receptor, sequence (P29274 whole entry): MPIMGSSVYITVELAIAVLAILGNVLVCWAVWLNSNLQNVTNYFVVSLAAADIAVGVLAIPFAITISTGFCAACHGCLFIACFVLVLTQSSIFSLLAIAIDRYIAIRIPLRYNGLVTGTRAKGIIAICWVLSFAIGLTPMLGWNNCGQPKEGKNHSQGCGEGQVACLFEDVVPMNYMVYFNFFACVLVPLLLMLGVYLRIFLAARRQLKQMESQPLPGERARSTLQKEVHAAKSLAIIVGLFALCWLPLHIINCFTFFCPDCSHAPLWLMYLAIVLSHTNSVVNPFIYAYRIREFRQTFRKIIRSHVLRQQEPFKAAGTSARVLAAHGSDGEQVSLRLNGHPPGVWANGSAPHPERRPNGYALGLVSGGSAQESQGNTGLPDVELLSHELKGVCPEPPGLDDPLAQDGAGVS

SMILES | Ki [nM]
Nc1nc2c3c(ccc2c2nc(CCN4CC5COCC(C4)C5(F)F)nn12)OC(F)(F)O3 [Example 32, 8-[2-(9,9-difluoro-3-oxa-7-azabicyclo[3.3.1]non-7-yl)ethyl]-2,2-difluoro[1,3]dioxolo [4,5-h][1,2,4]triazolo[1,5-c]quinazolin-5-amine] | 40
CC1(C)CN(CCc2nc3c4ccc5c(c4nc(N)n3n2)OC(F)(F)O5)C1 [Example 33, 8-[2-(3,3-dimethylazetidin-1-yl)ethyl]-2,2-difluoro[1,3]dioxolo [4,5-h][1,2,4]triazolo[1,5-c]quinazolin-5-amine] | 29
C[C@@H]1CC[C@@H](C)N1CCc1nc2c3ccc4c(c3nc(N)n2n1)OC(F)(F)O4 [Example 34, 8-{2-[(2R,5R)-2,5-dimethylpyrrolidin-1-yl]ethyl}-2,2-difluoro[1,3]dioxolo[4,5-h][1,2,4]triazolo[1,5-c]quinazolin-5-amine] | 11
Nc1nc2c3c(ccc2c2nc(CCN4CC[C@@H](c5ccccc5)C4)nn12)OC(F)(F)O3 [Example 36, 2,2-difluoro-8-{2-[(3S)-3-phenylpyrrolidin-1-yl]ethyl}[1,3]dioxolo[4,5-h][1,2,4]triazolo[1,5-c]quinazolin-5-amine] | 39
Nc1nc2c3c(ccc2c2nc(CCN4CC[C@H](c5ccccc5)C4)nn12)OC(F)(F)O3 [Example 37, 2,2-difluoro-8-{2-[(3R)-3-phenylpyrrolidin-1-yl]ethyl}[1,3]dioxolo[4,5-h][1,2,4]triazolo[1,5-c]quinazolin-5-amine] | 20
CC1CCN(CCc2nc3c4ccc5c(c4nc(N)n3n2)OC(F)(F)O5)CC1 [Example 38, 2,2-difluoro-8-[2-(4-methylpiperidin-1-yl)ethyl][1,3]dioxolo[4,5-h][1,2,4]triazolo[1,5-c]quinazolin-5-amine] | 27
CC1(C)CCCN(CCc2nc3c4ccc5c(c4nc(N)n3n2)OC(F)(F)O5)C1 [Example 39, 8-[2-(3,3-dimethylpiperidin-1-yl)ethyl]-2,2-difluoro[1,3] dioxolo[4,5-h][1,2,4]triazolo [1,5-c]quinazolin-5-amine] | 67
CO[C@@H]1CCCN(CCc2nc3c4ccc5c(c4nc(N)n3n2)OC(F)(F)O5)C1 [Example 40, 2,2-difluoro-8-{2-[(3R)-3-methoxypiperidin-1-yl]ethyl}[1,3]dioxolo[4,5-h][1,2,4]triazolo[1,5-c]quinazolin-5-amine] | 13
C[C@@H]1CN(CCc2nc3c4ccc5c(c4nc(N)n3n2)OC(F)(F)O5)CCO1 [Example 42, 2,2-difluoro-8-{2-[(2R)-2-methylmorpholin-4-yl]ethyl}[1,3]dioxolo[4,5-h][1,2,4]triazolo[1,5-c]quinazolin-5-amine] | 11
C[C@@H]1CN(CCc2nc3c4ccc5c(c4nc(N)n3n2)OC(F)(F)O5)C[C@H](C)O1 [Example 44, 8-{2-[(2R,6S)-2,6-dimethylmorpholin-4-yl]ethyl}-2,2-difluoro[1,3]dioxolo[4,5-h][1,2,4]triazolo[1,5-c]quinazolin-5-amine] | 45
Nc1nc2c3c(ccc2c2nc(CCN4C[C@H]5CCCN[C@H]5C4)nn12)OC(F)(F)O3 [Example 51, 2,2-difluoro-8-{2-[(4aR,7aR)-octahydro-6H-pyrrolo[3,4-b]pyridin-6-yl]ethyl}[1,3]dioxolo [4,5-h][1,2,4]triazolo[1,5-c]quinazolin-5-amine] | 55

The remaining lines, values ahead:

Ki [nM] | SMILES
11 | CC1(F)CCN(CCc2nc3c4ccc5c(c4nc(N)n3n2)OC(F)(F)O5)CC1 [Example 28, 2,2-difluoro-8-[2-(4-fluoro-4-methylpiperidin-1-yl)ethyl] [1,3]dioxolo[4,5-h][1,2,4] triazolo[1,5-c]quinazolin-5-amine]
1.6 | Nc1nc2c3c(ccc2c2nc(CCN4CCCC(F)(F)C4)nn12)OC(F)(F)O3 [Example 29, 8-[2-(3,3-difluoropiperidin-1-yl)ethyl]-2,2-difluoro[1,3] dioxolo[4,5-h][1,2,4]triazolo [1,5-c]quinazolin-5-amine]
2.6 | Nc1nc2c3c(ccc2c2nc(CCN4CCC(F)(F)CC4)nn12)OC(F)(F)O3 [Example 30, 8-[2-(4,4-difluoropiperidin-1-yl)ethyl]-2,2-difluoro[1,3] dioxolo[4,5-h][1,2,4]triazolo [1,5-c]quinazolin-5-amine]
2.2 | C[C@@H]1CC(F)(F)CCN1CCc1nc2c3ccc4c(c3nc(N)n2n1)OC(F)(F)O4 [Example 31, 8-{2-[(2R)-4,4-difluoro-2-methylpiperidin-1-yl]ethyl}-2,2-difluoro[1,3]dioxolo[4,5-h][1,2,4]triazolo[1,5-c]quinazolin-5-amine]
3 | Nc1nc2c3c(ccc2c2nc(CCN4CC5CC5C4)nn12)OC(F)(F)O3 (stereo not drawn) [Example 35, 8-[2-(3-azabicyclo[3.1.0]hex-3-yl)ethyl]-2,2-difluoro[1,3] dioxolo[4,5-h][1,2,4]triazolo [1,5-c]quinazolin-5-amine]
3.8 | CC1=CCN(CCc2nc3c4ccc5c(c4nc(N)n3n2)OC(F)(F)O5)CC1 [Example 41, 2,2-difluoro-8-[2-(4-methyl-3,6-dihydropyridin-1(2H)-yl)ethyl][1,3]dioxolo[4,5-h][1,2,4]triazolo[1,5-c]quinazolin-5-amine]
7.8 | C[C@H]1COCCN1CCc1nc2c3ccc4c(c3nc(N)n2n1)OC(F)(F)O4 [Example 43, 2,2-difluoro-8-{2-[(3S)-3-methylmorpholin-4-yl]ethyl}[1,3]dioxolo[4,5-h][1,2,4]triazolo[1,5-c]quinazolin-5-amine]
1.5 | Cc1ncc(N2CCN(CCc3nc4c5ccc6c(c5nc(N)n4n3)OC(F)(F)O6)[C@H](C)C2)s1 [Example 45, 2,2-difluoro-8-{2-[(2R)-2-methyl-4-(2-methyl-1,3-thiazol-5-yl)piperazin-1-yl]ethyl} [1,3]dioxolo[4,5-h][1,2,4] triazolo[1,5-c]quinazolin-5-amine]
1.8 | C[C@@H]1CN(c2nsnc2Cl)CCN1CCc1nc2c3ccc4c(c3nc(N)n2n1)OC(F)(F)O4 [Example 46, 8-{2-[(2R)-4-(4-chloro-1,2,5-thiadiazol-3-yl)-2-methylpiperazin-1-yl]ethyl}-2,2-difluoro[1,3]dioxolo[4,5-h][1,2,4]triazolo[1,5-c]quinazolin-5-amine]
1.7 | CN1CCN(CCc2nc3c4ccc5c(c4nc(N)n3n2)OC(F)(F)O5)CC1=O [Example 47, 4-[2-(5-amino-2,2-difluoro[1,3]dioxolo[4,5-h][1,2,4]triazolo [1,5-c]quinazolin-8-yl)ethyl]-1-methylpiperazin-2-one]
0.8 | Nc1nc2c3c(ccc2c2nc(CCN4CCN(CC5CC5)C(=O)C4)nn12)OC(F)(F)O3 [Example 48, 4-[2-(5-amino-2,2-difluoro[1,3]dioxolo[4,5-h][1,2,4]triazolo [1,5-c]quinazolin-8-yl)ethyl]-1-(cyclopropylmethyl)piperazin-2-one]
1.6 | Nc1nc2c3c(ccc2c2nc(CCN4CCN(C5CCCC5)C(=O)C4)nn12)OC(F)(F)O3 [Example 49, 4-[2-(5-amino-2,2-difluoro[1,3]dioxolo[4,5-h][1,2,4]triazolo [1,5-c]quinazolin-8-yl)ethyl]-1-cyclopentylpiperazin-2-one]
1.1 | Nc1nc2c3c(ccc2c2nc(CCN4CCN(c5cccc(F)c5)C(=O)C4)nn12)OC(F)(F)O3 [Example 50, 4-[2-(5-amino-2,2-difluoro[1,3]dioxolo[4,5-h][1,2,4]triazolo [1,5-c]quinazolin-8-yl)ethyl]-1-(3-fluorophenyl)piperazin-2-one]
